pIC50, pKd: −log10 of the molar value.
Columns and labels:
[1] = molecular target: kinase panel containing either 386 or 392 distinct kinases; assay: Kinase selectivity score S10 from competition binding panel; details: 10 μM, panel of 386 or 392 distinct kinases
In short: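 S10 is the number of kinases with percent-of-control under 10, divided by all distinct wild-type kinases tested, from a single 10 μM concentration. Binding measured by qPCR of kinase recovered from ligand-coated beads after 1 h equilibrium at room temperature; kinases were phage fusions or DNA-tagged HEK-293 products.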

KIT = molecular target: T1, KIT (Homo sapiens, UniProt P10721); assay: Competition binding assay, KIT Kd; details: competition binding
T1 construct: made in house
T1 sequence (P10721 26-976): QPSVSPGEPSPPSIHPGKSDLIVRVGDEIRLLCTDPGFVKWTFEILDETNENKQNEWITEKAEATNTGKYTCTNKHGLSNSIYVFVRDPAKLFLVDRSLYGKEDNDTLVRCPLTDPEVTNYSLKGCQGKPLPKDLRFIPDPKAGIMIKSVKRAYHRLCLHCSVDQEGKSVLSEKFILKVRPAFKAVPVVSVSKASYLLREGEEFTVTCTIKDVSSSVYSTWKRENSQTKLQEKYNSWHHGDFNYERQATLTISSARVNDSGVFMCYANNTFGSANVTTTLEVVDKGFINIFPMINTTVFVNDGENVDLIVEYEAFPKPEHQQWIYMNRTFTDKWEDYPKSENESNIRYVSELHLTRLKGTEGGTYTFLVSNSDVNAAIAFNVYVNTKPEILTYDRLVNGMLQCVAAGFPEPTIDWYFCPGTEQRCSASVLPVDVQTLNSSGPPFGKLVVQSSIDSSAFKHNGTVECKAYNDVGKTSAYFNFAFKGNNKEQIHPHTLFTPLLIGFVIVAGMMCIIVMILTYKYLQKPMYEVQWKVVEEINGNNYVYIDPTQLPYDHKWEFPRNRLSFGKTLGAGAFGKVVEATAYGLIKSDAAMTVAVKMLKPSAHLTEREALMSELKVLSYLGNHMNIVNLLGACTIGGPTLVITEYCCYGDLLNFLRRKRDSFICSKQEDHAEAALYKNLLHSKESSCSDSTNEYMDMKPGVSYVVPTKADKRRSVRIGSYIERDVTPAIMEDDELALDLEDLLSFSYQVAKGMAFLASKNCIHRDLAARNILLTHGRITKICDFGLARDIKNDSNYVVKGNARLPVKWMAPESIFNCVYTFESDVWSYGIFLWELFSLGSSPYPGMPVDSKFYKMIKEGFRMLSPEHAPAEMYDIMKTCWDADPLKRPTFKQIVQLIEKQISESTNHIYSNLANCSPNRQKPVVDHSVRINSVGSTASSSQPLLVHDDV
In short: (§1)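 Phage-fused or HEK-293/DNA-tagged kinase + ligand-coated streptavidin beads + compound, 1 h RT with shaking. Wash, elute with free ligand 30 min RT, qPCR of eluted kinase. Kd: 11-point 3-fold series.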

CSF1R [2] = molecular target: T2, CSF1R (Homo sapiens, UniProt P07333); assay: Competition binding assay, CSF1R Kd; design: made in house; details: competition binding
T2 sequence (P07333 20-972): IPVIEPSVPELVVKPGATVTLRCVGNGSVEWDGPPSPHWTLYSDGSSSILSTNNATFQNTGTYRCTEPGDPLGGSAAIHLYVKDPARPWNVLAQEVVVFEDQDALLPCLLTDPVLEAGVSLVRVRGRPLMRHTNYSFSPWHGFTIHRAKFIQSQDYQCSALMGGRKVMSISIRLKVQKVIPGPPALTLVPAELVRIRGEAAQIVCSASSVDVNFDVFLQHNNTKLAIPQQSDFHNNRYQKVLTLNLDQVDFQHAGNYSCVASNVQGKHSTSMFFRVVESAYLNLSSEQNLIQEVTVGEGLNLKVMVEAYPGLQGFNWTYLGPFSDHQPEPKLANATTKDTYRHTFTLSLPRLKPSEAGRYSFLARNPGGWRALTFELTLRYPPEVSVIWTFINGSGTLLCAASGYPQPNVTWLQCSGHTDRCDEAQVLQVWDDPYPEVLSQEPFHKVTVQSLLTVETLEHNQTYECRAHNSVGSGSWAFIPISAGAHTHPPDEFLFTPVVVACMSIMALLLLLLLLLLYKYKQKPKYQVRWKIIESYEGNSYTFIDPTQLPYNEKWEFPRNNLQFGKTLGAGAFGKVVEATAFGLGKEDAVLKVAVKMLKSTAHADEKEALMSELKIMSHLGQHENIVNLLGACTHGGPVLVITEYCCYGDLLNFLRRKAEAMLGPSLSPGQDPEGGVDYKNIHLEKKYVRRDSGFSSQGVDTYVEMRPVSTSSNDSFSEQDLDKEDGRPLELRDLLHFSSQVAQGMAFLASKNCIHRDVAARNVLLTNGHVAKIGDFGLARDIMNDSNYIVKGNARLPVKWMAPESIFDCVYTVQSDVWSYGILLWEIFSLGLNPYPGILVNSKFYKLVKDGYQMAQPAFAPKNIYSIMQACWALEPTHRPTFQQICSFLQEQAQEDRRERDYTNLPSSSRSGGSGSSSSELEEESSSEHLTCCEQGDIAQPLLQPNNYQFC
In short: as §1

PDGFRβ = molecular target: T3, PDGFRβ (Homo sapiens, UniProt P09619); assay: Competition binding assay, PDGFRβ Kd; details: competition binding
T3 construct: made in house
T3 sequence (P09619 33-1106): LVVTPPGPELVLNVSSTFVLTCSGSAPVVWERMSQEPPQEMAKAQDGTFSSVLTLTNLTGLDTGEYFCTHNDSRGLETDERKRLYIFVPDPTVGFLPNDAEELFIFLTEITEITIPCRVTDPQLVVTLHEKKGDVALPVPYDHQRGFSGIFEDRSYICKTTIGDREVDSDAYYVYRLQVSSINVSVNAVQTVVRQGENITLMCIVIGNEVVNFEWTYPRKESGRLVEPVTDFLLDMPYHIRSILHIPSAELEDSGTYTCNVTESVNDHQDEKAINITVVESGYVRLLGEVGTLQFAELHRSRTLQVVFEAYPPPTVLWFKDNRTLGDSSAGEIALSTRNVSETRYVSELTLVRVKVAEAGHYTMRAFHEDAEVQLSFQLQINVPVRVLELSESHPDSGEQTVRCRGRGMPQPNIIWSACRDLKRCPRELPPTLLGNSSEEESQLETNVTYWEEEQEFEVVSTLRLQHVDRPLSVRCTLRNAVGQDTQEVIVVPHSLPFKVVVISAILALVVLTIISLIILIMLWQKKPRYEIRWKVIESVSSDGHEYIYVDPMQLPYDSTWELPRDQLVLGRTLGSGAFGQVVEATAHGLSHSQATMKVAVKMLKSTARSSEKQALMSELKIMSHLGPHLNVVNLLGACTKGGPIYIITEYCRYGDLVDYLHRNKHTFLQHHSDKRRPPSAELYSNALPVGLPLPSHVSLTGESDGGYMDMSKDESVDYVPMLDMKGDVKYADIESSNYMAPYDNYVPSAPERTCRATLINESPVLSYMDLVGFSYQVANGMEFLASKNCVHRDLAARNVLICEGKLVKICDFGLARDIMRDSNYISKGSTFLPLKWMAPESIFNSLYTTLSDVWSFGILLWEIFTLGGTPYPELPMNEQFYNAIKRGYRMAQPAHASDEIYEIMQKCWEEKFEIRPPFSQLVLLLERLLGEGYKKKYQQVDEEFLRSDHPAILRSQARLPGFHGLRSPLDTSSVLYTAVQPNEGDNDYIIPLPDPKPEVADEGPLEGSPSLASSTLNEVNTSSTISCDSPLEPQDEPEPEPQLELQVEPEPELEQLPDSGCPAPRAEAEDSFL
In short: as §1

CSF1R [3] = molecular target: T2, CSF1R; assay: HEK293 CSF1R phosphorylation MSD assay; type: cell-based; design: expressed in transfected cells; host or cells: HEK293; details: HEK293 cells, M-CSF stimulated CSF1R phosphorylation, MSD; read-out: HEK293 pCSF1R M-CSF MSD:IC50
In short: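 Ligand-induced CSF1R autophosphorylation was measured by MSD sandwich assay: CSF1R-FKBP from lysates captured via FK506, anti-phosphotyrosine readout. Cells were exposed to compound for 2 h (9-point, half-log, 0.5% DMSO) before 5 min 50 ng/mL M-CSF. Reported IC50 is the mean of duplicate-plate IC50s relative to DMSO control.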

| Structure (SMILES) | Kinase specificity S(10) [1] | pKd (KIT) | pKd (CSF1R [2]) | pKd (PDGFRβ) | pIC50 (CSF1R [3]) |
| --- | --- | --- | --- | --- | --- |
| Cc1ccc2c(c1)ncn2Cc1ccc2nc(N[C@@H]3CCCC[C@H]3O)sc2c1 [Example 127, (1R,2R)-2-((6-((5-methyl-1H-benzo[d]imidazol-1-yl)methyl)benzo[d]thiazol-2-yl)amino)cyclohexanol] | A (A≤0.01) | 6.30 to 7.00 | 7.70 to 8.30 | ≥ 7.30 | 6.70 to 7.30 |
| O[C@@H]1CCCC[C@H]1Nc1nc2ccc(Cn3cnc4cc(F)c(F)cc43)cc2s1 [Example 128, (1R,2R)-2-((6-((5,6-difluoro-1H-benzo[d]imidazol-1-yl)methyl)benzo[d]thiazol-2-yl)amino)cyclohexanol] | B (0.01<B≤0.02) | 6.30 to 7.00 | 7.70 to 8.30 | 6.30 to 7.30 | 6.30 to 6.70 |
| O[C@@H]1CCCC[C@H]1Nc1nc2ccc(Cn3cnc4cc(F)ccc43)cc2s1 [Example 129, (1R,2R)-2-((6-((5-fluoro-1H-benzo[d]imidazol-1-yl)methyl)benzo[d]thiazol-2-yl)amino)cyclohexanol] | B (0.01<B≤0.02) | ≥ 7.00 | ≥ 8.30 | ≥ 7.30 | ≥ 7.30 |
| O[C@@H]1CCCC[C@H]1Nc1nc2ccc(Cn3cnc4cc(C(F)(F)F)ccc43)cc2s1 [Example 130, (1R,2R)-2-((6-((5-(trifluoromethyl)-1H-benzo[d]imidazol-1-yl)methyl)benzo[d]thiazol-2-yl)amino)cyclohexanol] | A (A≤0.01) | 6.30 to 7.00 | 7.70 to 8.30 | ≥ 7.30 | 6.30 to 6.70 |
| O[C@@H]1CCCC[C@H]1Nc1nc2ccc(Cc3cnc4cccnn34)cc2s1 [Example 131, (1R,2R)-2-((6-(imidazo[1,2-b]pyridazin-3-ylmethyl)benzo[d]thiazol-2-yl)amino)cyclohexanol] | B (0.01<B≤0.02) | ≥ 7.00 | ≥ 8.30 | ≥ 7.30 | ≥ 7.30 |
| O[C@@H]1CCCC[C@H]1Nc1nc2ccc(Cn3cnc4cc(F)cnc43)cc2o1 [Example 132, (1R,2R)-2-((6-((6-fluoro-3H-imidazo[4,5-b]pyridin-3-yl)methyl)benzo[d]oxazol-2-yl)amino)cyclohexanol] | C (C>0.02) | ≥ 7.00 | ≥ 8.30 | ≥ 7.30 | 6.70 to 7.30 |
| OC[C@@H]1CCCC[C@H]1Nc1nc2ccc(Cn3cnc4cc(Br)cnc43)cc2s1 [Example 133, ((1R,2R)-2-((6-((6-bromo-3H-imidazo[4,5-b]pyridin-3-yl)methyl)benzo[d]thiazol-2-yl)amino)cyclohexyl)methanol] | A (A≤0.01) | 6.30 to 7.00 | 7.70 to 8.30 | ≥ 7.30 | 6.70 to 7.30 |
| Cn1nnnc1-c1cnc2c(c1)ncn2Cc1ccc2nc(N[C@@H]3CCCC[C@H]3O)sc2c1 [Example 134, (1R,2R)-2-((6-((6-(1-methyl-1H-tetrazol-5-yl)-3H-imidazo[4,5-b]pyridin-3-yl)methyl)benzo[d]thiazol-2-yl)amino)cyclohexanol] | A (A≤0.01) | 6.30 to 7.00 | 7.70 to 8.30 | ≥ 7.30 | ≥ 7.30 |
| OC[C@H]1CCCC[C@H]1Nc1nc2ccc(Cn3cnc4cc(Br)cnc43)cc2s1 [Example 136, ((1S,2R)-2-((6-((6-bromo-3H-imidazo[4,5-b]pyridin-3-yl)methyl)benzo[d]thiazol-2-yl)amino)cyclohexyl)methanol] | B (0.01<B≤0.02) | ≥ 7.00 | 7.70 to 8.30 | ≥ 7.30 | 6.70 to 7.30 |
| O[C@@H]1CCCC[C@H]1Nc1nc2ccc(Cn3cnc4cc(Cl)c(Cl)nc43)cc2s1 [Example 137, (1R,2R)-2-((6-((5,6-dichloro-3H-imidazo[4,5-b]pyridin-3-yl)methyl)benzo[d]thiazol-2-yl)amino)cyclohexanol] | A (A≤0.01) | ≥ 7.00 | ≥ 8.30 | ≥ 7.30 | ≥ 7.30 |
| CCOc1ccc2c(c1)ncn2Cc1ccc2nc(N[C@@H]3CCCC[C@H]3O)sc2c1 [Example 138, (1R,2R)-2-((6-((5-ethoxy-1H-benzo[d]imidazol-1-yl)methyl)benzo[d]thiazol-2-yl)amino)cyclohexanol] | A (A≤0.01) | ≥ 7.00 | ≥ 8.30 | ≥ 7.30 | ≥ 7.30 |
| N#Cc1cc2ncn(Cc3ccc4nc(N[C@@H]5CCCC[C@H]5O)sc4c3)c2nc1C#N [Example 139, 3-((2-(((1R,2R)-2-hydroxycyclohexyl)amino)benzo[d]thiazol-6-yl)methyl)-3H-imidazo[4,5-b]pyridine-5,6-dicarbonitrile] | A (A≤0.01) | 6.30 to 7.00 | 7.30 to 7.70 | 6.30 to 7.30 | 6.30 to 6.70 |
| N#Cc1cnc2c(c1)ncn2Cc1ccc2nc(N[C@@H]3CCCC[C@H]3CO)sc2c1 [Example 140, 3-((2-(((1R,2R)-2-(hydroxymethyl)cyclohexyl)amino)benzo[d]thiazol-6-yl)methyl)-3H-imidazo[4,5-b]pyridine-6-carbonitrile] | A (A≤0.01) | 5.70 to 6.30 | 7.70 to 8.30 | 6.30 to 7.30 | 6.30 to 6.70 |
| O[C@@H]1CCCC[C@H]1Nc1nc2ccc(Cn3cnc4cc(-n5cccn5)cnc43)cc2s1 [Example 141, (1R,2R)-2-((6-((6-(1H-pyrazol-1-yl)-3H-imidazo[4,5-b]pyridine-3-yl)methyl)benzo[d]thiazol-2-yl)amino)cyclohexanol] | B (0.01<B≤0.02) | ≥ 7.00 | ≥ 8.30 | ≥ 7.30 | ≥ 7.30 |
| O[C@@H]1CCCC[C@H]1Nc1nc2ccc(Cc3cnc4cccnn34)cc2o1 [Example 142, (1R,2R)-2-((6-(imidazo[1,2-b]pyridazin-3-ylmethyl)benzo[d]oxazol-2-yl)amino)cyclohexanol] | C (C>0.02) | ≥ 7.00 | ≥ 8.30 | ≥ 7.30 | ≥ 7.30 |
| CNC(=O)c1ccc2ncc(Cc3ccc4nc(N[C@@H]5CCCC[C@H]5O)sc4c3)n2n1 [Example 143, 3-((2-(((1R,2R)-2-hydroxycyclohexyl)amino)benzo[d]thiazol-6-yl)methyl)-N-methylimidazo[1,2-b]pyridazine-6-carboxamide] | B (0.01<B≤0.02) | 5.70 to 6.30 | 7.70 to 8.30 | 5.70 to 6.30 | 6.30 to 6.70 |
| OCc1ccc2ncc(Cc3ccc4nc(N[C@@H]5CCCC[C@H]5O)sc4c3)n2n1 [Example 144, (1R,2R)-2-((6-((6-(hydroxymethyl)imidazo[1,2-b]pyridazin-3-yl)methyl)benzo[d]thiazol-2-yl)amino)cyclohexanol] | B (0.01<B≤0.02) | 6.30 to 7.00 | ≥ 8.30 | 6.30 to 7.30 | 6.70 to 7.30 |
| O[C@@H]1CCCC[C@H]1Nc1nc2ccc(Cn3cnc4cc(-n5cncn5)cnc43)cc2s1 [Example 145, (1R,2R)-2-((6-((6-(1H-1,2,4-triazol-1-yl)-3H-imidazo[4,5-b]pyridin-3-yl)methyl)benzo[d]thiazol-2-yl)amino)cyclohexanol] | A (A≤0.01) | 6.30 to 7.00 | ≥ 8.30 | ≥ 7.30 | ≥ 7.30 |

Source: US9938261B2, “Heterocyclic compounds and methods of use thereof” (AMBIT BIOSCIENCES CORPORATION, priority 2011, dated 2018)
